These results are taken from the supplement of paper PMC9265050, “Inhibition of RNA Binding in SND1 Increases the Levels of miR-1-3p and Sensitizes Cancer Cells to Navitoclax” (Cancers, 2022).

The subject of the test is SW480. The test is described as follows: drug sensitivity score (DSS, integrated dose-response area); higher = more sensitive (stronger viability reduction); extreme values may be limits of the assay. In a few lines: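 The drug sensitivity score is the integrated area under a fitted non-linear dose–response model. It was derived from SW480 cells with doxycycline-inducible control or SND1-targeting shRNA, induced with 0.1 µg/mL doxycycline for 7 days and plated at 1000 cells per well on 384-well plates of 525 commercially available small-molecule inhibitors at five concentrations. CellTiter-Glo measured viability after 72 h.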

[1] abbreviates: shRNA: SND1 shRNA1 (SND1 silenced).
[2] abbreviates: shRNA: SND1 shRNA2 (SND1 silenced).
[3] abbreviates: shRNA: control shRNA (non-targeting).

As for `O=C1CN2Cc3c(ccc(Cl)c3Cl)N=C2N1` [Anagrelide], the drug sensitivity score was 0 DSS under setting [1], 0 DSS under setting [2] and 0 DSS under setting [3].
Regarding `O=S(=O)(c1cccc2cnccc12)N1CCCNCC1` [Fasudil], the drug sensitivity score by setting is: under setting [1], 3.1 DSS; under setting [2], 3 DSS; under setting [3], 6 DSS.
On the same counts, the results for `C[C@]12CC[C@H](O)CC1=CC[C@@H]1[C@@H]2CC[C@]2(C)C(c3cccnc3)=CC[C@@H]12` [Abiraterone] are 0 DSS, 0 DSS and 0 DSS.
On the same counts, the results for `NC(=O)c1ccc(I)c([N+](=O)[O-])c1` [Iniparib] are 0.4 DSS, 0.1 DSS and 0 DSS.
`O=C(c1ccc(F)c(F)c1Nc1ccc(I)cc1F)N1CC(O)([C@@H]2CCCCN2)C1` [Cobimetinib]: the drug sensitivity score came out at 13.3 DSS under setting [1] and 7.7 DSS under setting [3].
`Cc1c(C(=O)Nc2ccc(N3C[C@@H](C)O[C@@H](C)C3)nc2)cccc1-c1ccc(OC(F)(F)F)cc1` [Sonidegib]: the drug sensitivity score runs as follows: under setting [1], 2.9 DSS; under setting [2], 5.7 DSS; under setting [3], 2.8 DSS.
The corresponding values for `CNC(=O)c1cc(Oc2ccc(NC(=O)Nc3ccc(Cl)c(C(F)(F)F)c3)cc2)ccn1` [Sorafenib] are 0 DSS, 0 DSS and 0 DSS.
On the same counts, the results for `CC(C)NC[C@@H](C(=O)N1CCN(c2ncnc3c2[C@H](C)C[C@H]3O)CC1)c1ccc(Cl)cc1` [Ipatasertib] are 3.5 DSS, 9.7 DSS and 5.9 DSS.
On the same counts, the results for `Cc1nc(Nc2n[nH]c3c2CN(C(=O)N[C@H](CN(C)C)c2ccccc2)C3(C)C)c2sccc2n1` are 14.9 DSS, 13.7 DSS and 16.5 DSS.
`COc1cc2c(Nc3ccc(Cl)c(Cl)c3F)ncnc2cc1OC[C@@H]1C[C@@H]2CN(C)C[C@@H]2C1` [XL-647]: the drug sensitivity score runs as follows: under setting [1], 2.1 DSS; under setting [2], 3.1 DSS; under setting [3], 2.4 DSS.
In turn, `COc1cccc(OCCCN)c1-c1cc(Nc2cnc(C#N)cn2)n[nH]1` [Prexasertib] had a drug sensitivity score under setting [1] of 29.1 DSS, a drug sensitivity score under setting [2] of 26.2 DSS and a drug sensitivity score under setting [3] of 28.1 DSS.
As for `COc1cc([C@@H]2c3cc4c(cc3[C@@H](O[C@@H]3O[C@@H]5CO[C@@H](c6cccs6)O[C@H]5[C@H](O)[C@H]3O)[C@H]3COC(=O)[C@H]23)OCO4)cc(OC)c1O` [Teniposide], the drug sensitivity score worked out at 9.1 DSS under setting [1], 6 DSS under setting [2] and 7.8 DSS under setting [3].
On the same counts, the results for `CNC(=O)c1nn(C)c2c1C(C)(C)Cc1cnc(Nc3ccc(N4CCN(C)CC4)cc3)nc1-2` [Milciclib] are 11.4 DSS, 10.9 DSS and 9.2 DSS.
In the case of `COc1ccc(S(=O)(=O)Nc2cccnc2Nc2ccc(O)cc2)cc1` [ABT-751], the drug sensitivity score stood at 9 DSS under setting [1], 9.1 DSS under setting [2] and 9.5 DSS under setting [3].
The corresponding values for `COc1cc2c(cc1-c1c(C)noc1C)ncc1[nH]c(=O)n([C@H](C)c3ccccn3)c12` [I-BET151] are 1.4 DSS, 0.5 DSS and 2.4 DSS.
On the same counts, the results for `COc1cc2nccc(Oc3ccc(NC(=O)Nc4cc(C)on4)c(Cl)c3)c2cc1OC` [Tivozanib] are 3.8 DSS, 3.6 DSS and 5 DSS.
In the case of `O=C(c1cccc(Cl)c1F)N1CCN(Cc2cccc(Nc3nccs3)n2)CC1` [MK-8745], the drug sensitivity score reads like this: under setting [1], 1.7 DSS; under setting [3], 1.9 DSS.
For `CO[C@@H]1[C@H](N(C)C(=O)c2ccccc2)C[C@H]2O[C@]1(C)n1c3ccccc3c3c4c(c5c6ccccc6n2c5c31)C(=O)NC4` [Midostaurin], the drug sensitivity score runs as follows: under setting [1], 14.3 DSS; under setting [2], 14.7 DSS; under setting [3], 14.5 DSS.
Compound `CC[C@H](C)C(=O)O[C@H]1C[C@H](O)C=C2C=C[C@H](C)[C@H](CC[C@@H](O)C[C@@H](O)CC(=O)O)[C@H]21` [Pravastatin] gave a drug sensitivity score under setting [1] of 0 DSS and a drug sensitivity score under setting [3] of 3.1 DSS.
With `Oc1c2ccccc2c2c3c(cccc13)N=N2`, the drug sensitivity score runs as follows: under setting [1], 1.8 DSS; under setting [2], 3.4 DSS; under setting [3], 0.6 DSS.
`Cc1c(F)cc(C(=O)NC2CC2)cc1-c1ccc(C(=O)NCC(C)(C)C)cn1` [Losmapimod] returned a drug sensitivity score under setting [1] of 0 DSS, a drug sensitivity score under setting [2] of 0 DSS and a drug sensitivity score under setting [3] of 0 DSS.
`CCC1=C[C@@H]2CN(C1)Cc1c([nH]c3ccccc13)[C@@](C(=O)OC)(c1cc3c(cc1OC)N(C)[C@H]1[C@@](O)(C(=O)OC)[C@H](OC(C)=O)[C@]4(CC)C=CCN5CC[C@]31[C@@H]54)C2` [Vinorelbine] yielded a drug sensitivity score under setting [1] of 19.3 DSS, a drug sensitivity score under setting [2] of 19.5 DSS and a drug sensitivity score under setting [3] of 22.4 DSS.
The corresponding values for `COc1cc(F)c(F)c(Nc2ccc(I)cc2F)c1NS(=O)(=O)C1(C[C@H](O)CO)CC1` [Refametinib] are 26.8 DSS, 18 DSS and 11.1 DSS.
For `C=CCc1cccc(/C=N/NC(=O)CN2CCN(Cc3ccccc3)CC2)c1O` [PAC-1], the drug sensitivity score amounted to 6.8 DSS under setting [1], 6.3 DSS under setting [2] and 7 DSS under setting [3].
On to `O=C(O)C(=O)O.[NH-][C@@H]1CCCC[C@H]1[NH-].[Pt+2]` [Oxaliplatin], for which the drug sensitivity score is 14 DSS under setting [1] and 16.7 DSS under setting [3].
With `Cc1c(N)nc([C@H](CC(N)=O)NC[C@H](N)C(N)=O)nc1C(=O)N[C@H](C(=O)N[C@H](C)[C@@H](O)[C@H](C)C(=O)N[C@H](C(=O)NCCc1nc(-c2nc(C(=O)NCCC[S+](C)C)cs2)cs1)[C@@H](C)O)[C@@H](OC1OC(CO)C(O)C(O)C1OC1OC(CO)C(O)C(OC(N)=O)C1O)c1cnc[nH]1` (stereo partly specified) [Bleomycin], the drug sensitivity score came to 4.8 DSS under setting [1], 5.4 DSS under setting [2] and 4.2 DSS under setting [3].
The corresponding values for `CCCS(=O)(=O)Nc1ccc(F)c(C(=O)c2c[nH]c3ncc(-c4ccc(Cl)cc4)cc23)c1F` [Vemurafenib] are 0 DSS, 0.1 DSS and 0 DSS.
Turning to `CO[C@H]1C[C@@H]2CC[C@@H](C)[C@@](O)(O2)C(=O)C(=O)N2CCCC[C@H]2C(=O)O[C@H]([C@H](C)C[C@@H]2CC[C@@H](OCCO)[C@H](OC)C2)CC(=O)[C@H](C)/C=C(\C)[C@@H](O)[C@@H](OC)C(=O)[C@H](C)C[C@H](C)/C=C/C=C/C=C/1C` [Everolimus], the drug sensitivity score reads like this: under setting [1], 7.5 DSS; under setting [3], 0.4 DSS.
For `N.N.[Cl][Pt][Cl]` [Cisplatin], the drug sensitivity score runs as follows: under setting [1], 8.1 DSS; under setting [3], 9.2 DSS.
With `CC(=O)NCC(=O)N1[C@@H]2CC[C@H]1c1ccc(Nc3ncc(C(F)(F)F)c(NC4CCC4)n3)cc12`, the drug sensitivity score runs as follows: under setting [1], 17.4 DSS; under setting [2], 14.2 DSS; under setting [3], 13.2 DSS.
On the same counts, the results for `Nc1ccccc1NC(=O)c1ccc(CNc2nccc(-c3cccnc3)n2)cc1` [Mocetinostat] are 10.2 DSS, 6.1 DSS and 7.8 DSS.
`CS(=O)(=O)c1ccc(C2=C(c3ccccc3)C(=O)OC2)cc1` [Rofecoxib]: the drug sensitivity score runs as follows: under setting [1], 0 DSS; under setting [2], 0 DSS; under setting [3], 0 DSS.
`Cc1nc(C(=O)NCC(=O)O)c(O)c2ccc(Oc3ccccc3)cc12` [FG-4592]: the drug sensitivity score was 4.8 DSS under setting [1], 1 DSS under setting [2] and 2.5 DSS under setting [3].
As for `CNC(=O)c1ccccc1Nc1cc(Nc2ccc(N3CCOCC3)cc2OC)ncc1C(F)(F)F` [VS-4718], the drug sensitivity score under setting [1] was 4.8 DSS, the drug sensitivity score under setting [2] is 3.8 DSS and the drug sensitivity score under setting [3] amounted to 4.1 DSS.
The corresponding values for `CCCNC(=O)Nc1ccc(Oc2ncnc3cc(OC)c(OC)cc23)cc1Cl` [KRN-633] are 0 DSS, 0.4 DSS and 0.6 DSS.
Turning to `CNNCc1ccc(C(=O)NC(C)C)cc1` [Procarbazine], the drug sensitivity score is 0 DSS under setting [1], 0 DSS under setting [2] and 0 DSS under setting [3].
With `Cc1ccccc1C(C(=O)NC1CCCCC1)N(C(=O)Cn1ccnc1C)c1cccc(F)c1` (stereo unspecified) [AGI-5198], the drug sensitivity score was 0 DSS under setting [1] and 3.6 DSS under setting [3].
As to `C=C(c1ccc(C(=O)O)cc1)c1cc2c(cc1C)C(C)(C)CCC2(C)C` [Bexarotene], the drug sensitivity score stood at 0 DSS under setting [1], 0 DSS under setting [2] and 0 DSS under setting [3].
In the case of `Cc1ccc(Nc2nccc(N(C)c3ccc4c(C)n(C)nc4c3)n2)cc1S(N)(=O)=O` [Pazopanib], the drug sensitivity score runs as follows: under setting [1], 0.5 DSS; under setting [2], 7.1 DSS; under setting [3], 1.8 DSS.
Consider `CC(C)c1cc(-c2n[nH]c(=O)n2-c2ccc3c(ccn3C)c2)c(O)cc1O` [Ganetespib], for which the drug sensitivity score is, setting by setting: under setting [1], 12.7 DSS; under setting [2], 12.5 DSS; under setting [3], 13.9 DSS.
`CC(C)C[C@H](NC(=O)[C@H](Cc1ccccc1)NC(=O)c1cnccn1)B(O)O` [Bortezomib]: the drug sensitivity score is, setting by setting: under setting [1], 28.8 DSS; under setting [2], 28.1 DSS; under setting [3], 28.7 DSS.
